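Values below derive from 48-hour exposures of cells grown in 96-well plates, with endpoints linearly interpolated between the two concentrations bracketing the appropriate inhibition level. At the GI50, growth is halved.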 Calls of active or inactive are those of the source. Rule as the data show it: active = GI50 up to about 1.1 µM and inactive = higher.
Experiments:
Experiment in all cases: NCI tumour cell line growth inhibition, 48 h
OVCAR-4 = system: OVCAR-4
ACHN = system: ACHN
COLO 205 = system: COLO 205
UACC-62 = system: UACC-62
SNB-19 = system: SNB-19
U-251 = system: U-251
SNB-75 = system: SNB-75
SK-OV-3 = system: SK-OV-3
Malme-3M = system: Malme-3M
MDA-MB-435 = system: MDA-MB-435
HCT-15 = system: HCT-15
UO-31 = system: UO-31
SF-539 = system: SF-539
IGROV-1 = system: IGROV-1
RXF 393 = system: RXF 393
NCI-H226 = system: NCI-H226
SK-MEL-28 = system: SK-MEL-28
PC-3 = system: PC-3
786-0 = system: 786-0
SK-MEL-5 = system: SK-MEL-5

Row | Structure (SMILES) | GI50 (OVCAR-4) | GI50 (ACHN) | GI50 (COLO 205) | GI50 (UACC-62) | GI50 (SNB-19) | GI50 (U-251) | GI50 (SNB-75) | GI50 (SK-OV-3) | GI50 (Malme-3M) | GI50 (MDA-MB-435) | GI50 (HCT-15) | GI50 (UO-31) | GI50 (SF-539) | GI50 (IGROV-1) | GI50 (RXF 393) | GI50 (NCI-H226) | GI50 (SK-MEL-28) | GI50 (PC-3) | GI50 (786-0) | GI50 (SK-MEL-5)
1 | CC1OC(Oc2c(-c3cc(O)c(O)c(O)c3)oc3cc(O)cc(O)c3c2=O)C(O)C(O)C1O (stereo not given) | > 100 µM (inactive) | > 100 µM (inactive) | > 100 µM (inactive) | > 100 µM (inactive) | > 100 µM (inactive) | > 100 µM (inactive) | > 100 µM (inactive) | > 100 µM (inactive) | > 100 µM (inactive) | 57.4 µM (inactive) | > 100 µM | > 100 µM (inactive) | > 100 µM (inactive) | > 100 µM (inactive) | > 100 µM (inactive) | > 100 µM (inactive) | > 100 µM (inactive) | > 100 µM (inactive) | > 100 µM (inactive) | > 100 µM (inactive)
2 | C[C@@H]1CCC([C@@H](C)[C@H]2CC[C@H]3[C@@H]4CC[C@H]5C[C@@H](O)CC[C@]5(C)[C@H]4CC[C@]23C)=NC1 | 7.46 µM (inactive) | 14 µM (inactive) | 8.15 µM (inactive) | 15.9 µM (inactive) | 10.6 µM (inactive) | 8.63 µM (inactive) | 19.1 µM (inactive) | 30.9 µM (inactive) | 18.1 µM (inactive) | 20.7 µM (inactive) | 2.76 µM | 10.4 µM (inactive) | 15 µM (inactive) | 4.71 µM (inactive) | 12.2 µM (inactive) | > 29.8 µM (inactive) | 20.1 µM (inactive) | 10.1 µM (inactive) | 8.02 µM (inactive) | 7.64 µM (inactive)
3 | COc1ccc2c(c1)CC[C@@H]1[C@@H]2CC[C@]2(C)/C(=N/OCCN3CCCCC3)CC[C@@H]12 | 12.2 µM (inactive) | 8.81 µM (inactive) | 1.55 µM (inactive) | 2.06 µM (inactive) | 7.45 µM (inactive) | 8.09 µM (inactive) | 5.69 µM (inactive) | 10.3 µM (inactive) | 2.25 µM (inactive) | 4.56 µM (inactive) | 2.03 µM | 3.19 µM (inactive) | 2.77 µM (inactive) | 1.95 µM (inactive) | 2.81 µM (inactive) | 5.43 µM (inactive) | 2.12 µM (inactive) | 4.74 µM (inactive) | 1.85 µM (inactive) | 2.65 µM (inactive)
4 | COC(=O)N/N=C(/c1nc2ccc([N+](=O)[O-])cc2nc1O)C(O)c1ccc(OC)c(OC)c1 (stereo not given) | > 100 µM (inactive) | > 100 µM (inactive) | 39.4 µM (inactive) | > 100 µM (inactive) | > 100 µM (inactive) | > 100 µM (inactive) | > 100 µM (inactive) | > 100 µM (inactive) | > 100 µM (inactive) | > 100 µM (inactive) | 46.8 µM | > 100 µM (inactive) | > 100 µM (inactive) | > 100 µM (inactive) | > 100 µM (inactive) | > 100 µM (inactive) | > 100 µM (inactive) | 76.2 µM (inactive) | > 69 µM (inactive) | 29.8 µM (inactive)
5 | COC(=O)c1ccccc1CC1Cc2ccc3c(c2C1=O)CCC3 (stereo not given) | 29.9 µM (inactive) | 41.5 µM (inactive) | 29.9 µM (inactive) | 39.5 µM (inactive) | > 100 µM (inactive) | 51.1 µM (inactive) | 13.8 µM (inactive) | > 100 µM (inactive) | 28.8 µM (inactive) | 24.9 µM (inactive) | 50 µM | 49.4 µM (inactive) | > 100 µM (inactive) | > 100 µM (inactive) | 35.4 µM (inactive) | 77.8 µM (inactive) | 37.2 µM (inactive) | 22.5 µM (inactive) | 80.5 µM (inactive) | 23 µM (inactive)
6 | CC(Oc1ccccc1)C(=O)NNC(=O)OC(C)(C)C (stereo not given) | > 100 µM (inactive) | > 100 µM (inactive) | > 100 µM (inactive) | > 100 µM (inactive) | > 100 µM (inactive) | > 100 µM (inactive) | > 100 µM (inactive) | > 100 µM (inactive) | > 100 µM (inactive) | > 100 µM (inactive) | > 100 µM | > 100 µM (inactive) | > 100 µM (inactive) | > 100 µM (inactive) | > 100 µM (inactive) | > 100 µM (inactive) | > 100 µM (inactive) | > 100 µM (inactive) | > 100 µM (inactive) | > 100 µM (inactive)
7 | CC(C)c1c(O)ccc2c1CCC1C(C)(C)CCCC21C (stereo not given) | 17.5 µM (inactive) | 17.1 µM (inactive) | 17.8 µM (inactive) | 15.2 µM (inactive) | 18.2 µM (inactive) | 18 µM (inactive) | 18.6 µM (inactive) | 18.9 µM (inactive) | 18.6 µM (inactive) | 18.6 µM (inactive) | 18.9 µM | 17.4 µM (inactive) | 18.7 µM (inactive) | 16.3 µM (inactive) | 15.1 µM (inactive) | 17.7 µM (inactive) | 21.3 µM (inactive) | 17.6 µM (inactive) | 18.1 µM (inactive) | 16.3 µM (inactive)

From ChEMBL document CHEMBL1201862, “PubChem BioAssay data set” (2004)
